Data published in patent US12534469B2 (CHILDREN'S HOSPITAL MEDICAL CENTER, priority 2020, dated 2026).
“Also recorded” adds a separate entry of the source.

Tests used:
MOLM14 (D835Y) cells = assay: Combination drug screening, 10 x 10 matrix, cell viability (Cell Titer Glo); format: cell-based; details: for Interaction with Venetoclax / Sum Excess HSA: combination with Venetoclax, 10 x 10 dataset; for Sum Excess HSA: 48 hours
Description: Briefly, 10 nL of compounds were acoustically dispensed into 1536-well white polystyrene tissue culture-treated plates with an Echo 550 acoustic liquid handler (Labcyte). MOLM14 (D835Y) cells were then added to compound-containing plates at a density of 500-cells/well in 5 μL of medium. A 10-point custom concentration range was used for all listed drugs. Plates were incubated for 48 hours at standard incubator conditions covered by a stainless steel gasketed lid to prevent evaporation. 48 h post compound addition, 3 μL of Cell Titer Glo (Promega) were added to each well and plates were incubated at room temperature for 15 minutes with the stainless-steel lid in place. Luminescence readings were taken using a Viewlux imager (PerkinElmer) with a 2 second exposure time per plate.
However, different methodologies may yield different numerical scores, and different definitions of what constitutes a deviation from mere additivity vs true drug synergy.
However, the utility in certain drug combinations vs others should not be distinguished based on cutoffs between HSA scores, because the score itself is only a relative indicator that is completely dependent on experimental design and is not an absolute number. Furthermore, the concept of what constitutes clinically meaningful drug synergy is something that is still being debated, not only between pharmacologists and physicians, but amongst pharmacologists themselves.

FLT3 D835V = target: T1, FLT3 D835V (Homo sapiens, UniProt P36888, D835V); assay: DiscoverX KINOMEscan competition binding assay, FLT3 D835V
T1 construct: purchased DiscoverX (KINOMEscan); host or cells: E. coli (T7 phage) or HEK-293
T1 sequence (P36888 27-993 D835V): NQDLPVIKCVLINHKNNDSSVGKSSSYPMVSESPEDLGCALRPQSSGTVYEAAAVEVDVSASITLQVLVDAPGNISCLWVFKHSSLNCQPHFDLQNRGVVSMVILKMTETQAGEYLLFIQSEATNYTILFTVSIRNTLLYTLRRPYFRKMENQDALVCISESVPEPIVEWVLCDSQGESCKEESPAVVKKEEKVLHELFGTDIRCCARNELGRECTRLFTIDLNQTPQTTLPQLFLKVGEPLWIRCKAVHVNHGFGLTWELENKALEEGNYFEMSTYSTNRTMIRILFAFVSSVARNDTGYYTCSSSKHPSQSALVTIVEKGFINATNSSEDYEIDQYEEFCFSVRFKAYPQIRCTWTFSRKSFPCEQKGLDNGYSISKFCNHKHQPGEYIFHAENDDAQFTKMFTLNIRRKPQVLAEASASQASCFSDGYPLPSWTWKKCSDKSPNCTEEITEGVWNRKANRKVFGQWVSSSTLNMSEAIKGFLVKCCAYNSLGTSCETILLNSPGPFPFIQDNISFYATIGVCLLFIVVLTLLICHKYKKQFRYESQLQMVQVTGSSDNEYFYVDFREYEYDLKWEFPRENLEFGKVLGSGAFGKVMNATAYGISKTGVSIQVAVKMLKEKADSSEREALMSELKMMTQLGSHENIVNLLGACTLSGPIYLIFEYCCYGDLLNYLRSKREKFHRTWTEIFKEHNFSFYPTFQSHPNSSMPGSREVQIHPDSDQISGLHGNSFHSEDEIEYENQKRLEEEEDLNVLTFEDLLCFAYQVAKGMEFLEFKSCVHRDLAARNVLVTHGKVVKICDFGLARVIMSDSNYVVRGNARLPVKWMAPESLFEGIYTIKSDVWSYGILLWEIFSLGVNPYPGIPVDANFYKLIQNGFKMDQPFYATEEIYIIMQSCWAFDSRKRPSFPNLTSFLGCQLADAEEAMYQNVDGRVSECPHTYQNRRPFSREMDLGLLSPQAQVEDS
Description: Kinase binding data were obtained for various exemplary compounds prepared according to Examples 1-25 using the DiscoverX KINOMEscan® active site-directed competition binding site-directed assay protocol described below. […] As a result, the data report thermodynamic interaction affinities (Kd values), rather than IC50 values that are dependent on ATP concentrations. The assay uses a DNA-tagged version of the protein kinase, and an immobilized ligand bound to a solid support. Compounds that directly or indirectly prevent kinase binding to the immobilized ligand reduce the amount of kinase captured on the solid support, which is detected using an ultra-sensitive qPCR method. Affinity constants reported from the assay have been reported to be independent of the immobilized ligand used that is coupled to the solid support (See supplemental information in Fabian, M. A. et. al., (2005) Nat. Biotechnol. 23, 329-336; Wodicka, L. M. et. al., (2010) Chem. Biol. 17, 1241-1249.)
Kinase-tagged T7 phage strains were prepared in an E. coli host derived from the BL21 strain. E. coli were grown to log-phase and infected with T7 phage and incubated with shaking at 32° C. until lysis. The lysates were centrifuged and filtered to remove cell debris. The remaining kinases were produced in HEK-293 cells and subsequently tagged with DNA for qPCR detection. […] The liganded beads were blocked with excess biotin and washed with blocking buffer (SeaBlock (Pierce), 1% BSA, 0.05% Tween 20, 1 mM DTT) to remove unbound ligand and to reduce non-specific binding. […] Test compounds were prepared as 111× stocks in 100% DMSO. Kds were determined using an 11-point 3-fold compound dilution series with three DMSO control points. […] The compounds were then diluted directly into the assays such that the final concentration of DMSO was 0.9%. All reactions were performed in polypropylene 384-well plates. Each was a final volume of 0.02 mL. […] The kinase concentration in the eluates was measured by qPCR.
Binding constants (Kds) were calculated with a standard dose-response curve using the Hill equation. […]

## COc1cc2ncc(-c3cccc(N[C@H]4CNC[C@@H]4C(F)(F)F)n3)n2nc1C1CC1 [Compound 99, 6-(6-cyclopropyl-7-methoxyimidazo[1,2-b]pyridazin-3-yl)-N-((3R,4S)-4-(trifluoromethyl)pyrrolidin-3-yl)pyridin-2-amine]
MOLM14 (D835Y) cells
  Interaction with Venetoclax: profound synergism; also recorded: Synergistic
  Sum Excess HSA: −789.4

## COc1cc2ncc(-c3nc(N[C@@H]4CCCNC4)c(F)cc3F)n2nc1C1CC1 [Compound 106, (R)-6-(6-cyclopropyl-7-methoxyimidazo[1,2-b]pyridazin-3-yl)-3,5-difluoro-N-(piperidin-3-yl)pyridin-2-amine]
MOLM14 (D835Y) cells; 7.8 nM Venetoclax, 10×10 combination
  concentration of compound required to fully potentiate a 7.8 nM concentration of Venetoclax to <5% of the maximum response: 3.1 nM
MOLM14 (D835Y) cells
  Interaction with Venetoclax: profound synergism
  Sum Excess HSA: −334

## COc1cc2ncc(-c3cccc(N[C@@H]4CCNC4)n3)n2nc1C1CC1 [Compound 97, (R)-6-(6-cyclopropyl-7-methoxyimidazo[1,2-b]pyridazin-3-yl)-N-(pyrrolidin-3-yl)pyridin-2-amine]
FLT3 D835V
  Kd: 67 pM

## COc1cc2ncc(-c3cccc(N[C@H]4CNCC[C@@H]4F)n3)n2nc1C1CC1 [Compound 102, 6-(6-cyclopropyl-7-methoxyimidazo[1,2-b]pyridazin-3-yl)-N-((3S,4S)-4-fluoropiperidin-3-yl)pyridin-2-amine]
MOLM14 (D835Y) cells
  Interaction with Venetoclax: profound synergism
  Sum Excess HSA: −188.8
FLT3 D835V
  Kd: 110 pM

## COc1cc2ncc(-c3cccc(N[C@H]4CNC[C@@H]4F)n3)n2nc1C1CC1 [Compound 96, 6-(6-cyclopropyl-7-methoxyimidazo[1,2-b]pyridazin-3-yl)-N-((3S,4S)-4-fluoropyrrolidin-3-yl)pyridin-2-amine]
MOLM14 (D835Y) cells
  Interaction with Venetoclax: profound synergism
  Sum Excess HSA: −543.2
FLT3 D835V
  Kd: 120 pM

## COc1cc2ncc(-c3nc(N[C@H]4CNCC[C@@H]4F)c(F)cc3F)n2nc1C1CC1 [Compound 108, 6-(6-cyclopropyl-7-methoxyimidazo[1,2-b]pyridazin-3-yl)-3,5-difluoro-N-((3S,4S)-4-fluoropiperidin-3-yl)pyridin-2-amine]
MOLM14 (D835Y) cells
  Interaction with Venetoclax: profound synergism
  Sum Excess HSA: −480.4
MOLM14 (D835Y) cells; combined with 15.6 nM Venetoclax, 10×10 array
  concentration at which synergy (Delta Bliss score) is highest: 0.8 to 1.6 nM
